The subject of this assay is 454973-116-R2-J3-PDC complex spheroid viability. The assay is described as follows: Anticancer human tumor 454973-116-R2-J3-PDC patient-derived pancreatic carcinoma cell line growth inhibition [POLQ]. Conditions: for viability, T/C: stronger effect = lower value. How it is done: Multicellular complex tumor spheroid response to Polymerase (POL) inhibitors (novobiocin, ART-558, RP6685) in combination with a variety of drugs and investigational agents in selected tumor cell lines
The POL inhibitors (novobiocin, ART-558, and RP6685) were evaluated both individually and in combination with standard of care and investigational anticancer small molecules within a complex spheroid model of solid tumors. . Complex spheroids include a stromal component modeled by human endothelial cells (HUVEC) and fibroblasts modeled by human mesenchymal stem cells (MSCs). The concentration ranges selected for each drug and investigational agent were based upon clinically achievable concentrations if the clinical Cmax of the agent was known.
Compounds. The drugs and investigational agents: novobiocin (NSC847541), ART-558 (NSC835418), RP-6685 (NSC848927), peposertib (NSC802822), ceralasertib (NSC780249), elimusertib (NSC800525), camonsertib (NSC841442), AZD-1390 (NSC803789), olaparib (NSC753686), talazoparib (NSC767125), rucaparib (NSC756644), sotorasib (NSC818433), MRTX-1133 (NSC836407), SN-38 (NSC673596), topotecan (NSC609699), epotoside (NSC141540), doxorubicin (NSC123127), gemcitabine (NSC613327), 5-fluorouracil (NSC19893), paclitaxel (NSC125973), vemurafenib (NSC761431), MSA-2 (NSC828583), SN-011 (NSC837082), adavosertib (NSC754352), prexasertib (NSC758257), carboplatin (NSC241240) and oxaliplatin (NSC266046), were obtained from the National Cancer Institute (NCI) Developmental Therapeutics Program Chemical Repository (21). The FDA-approved anticancer drug set is available from the Developmental Therapeutics Program at https://dtp.cancer.gov/organization/dscb/obtaining/. […] The stock solutions were prepared in dimethyl sulfoxide (DMSO, Sigma-Aldrich, St. Louis, MO, cat. D2650), except for the platinum compounds which were prepared in saline (Quality Biological, Gaithersburg, MD, cat. 114-055-101), at 800-fold the tested concentration and stored at -70 degrees C prior to their use. All drugs and investigational agents were tested over a range starting from a high concentration at or near the clinical Cmax and decreasing in half-log increments. If the clinical Cmax for an agent had not been determined, the highest concentration tested was 10 microM, except for SN-38, which was tested at a high concentration of 1 microM.
Cell Culture. All cells were maintained in an incubator at 37 degrees C and 5% CO2 with 95% humidity. The PDC lines were cultured according to standard operating procedures established by the NCI PDMR (https://pdmr.cancer.gov). Table 3 of the manuscript, lists the cell lines along with the number of the three cell types plated to form the mct-spheroids and media for tumor cell growth. After thawing, all PDC lines, except 997537-175-T-J1-PDC and 415267-285-R-J2-PDC, were cultured in Matrigel-coated flasks prepared with a working solution of 1X Ham's F-12 nutrient mix, without supplementation (Thermo Fisher Scientific, cat. 11765054), 100 U/mL penicillin-streptomycin (Thermo Fisher Scientific, cat. 15140122), and 2.5% Matrigel (Corning Inc., Corning, NY, cat. 354248) for the first three passages. The two PDC lines 997537-175-T-J1-PDC and 415267-285-R-J2-PDC were cultured on uncoated flasks. The 857933-349-R-J2-PDC line was cultured in 6C/Colon 1B media containing advanced DMEM/F-12 (Thermo Fisher Scientific, cat. 12634028), 10 mM HEPES (Thermo Fisher Scientific, cat. 15630080), 1X GlutaMAX supplement (Thermo Fisher Scientific, cat. 35050061), 0.1 mg/mL primocin (InvivoGen, San Diego, CA, cat. ant-pm-2), 10% defined fetal bovine serum, heat inactivated (HyClone Laboratories Inc., Logan, UT, cat. SH30070.03HI), 50% L-WRN conditioned media (ATCC, cat. CRL-3276), 1.25 mM N-Acetyl-L-cysteine (Sigma-Aldrich, cat. A9165), 10 mM nicotinamide (Sigma-Aldrich, cat. N0636), 1X B-27 supplement (Thermo Fisher Scientific, cat. 17504044), 1X N-2 supplement (Thermo Fisher Scientific, cat. […]

Where “and” joins values, the source holds several entries; their conditions need not be identical. Equal values may be shown once.
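Further: spheroids exposed to drugs for seven days before measurement.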
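Wherever viability, T/C is given: percent viability relative to DMSO vehicle control wells taken as 100%.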

The term viability, T/C denotes the ratio of treated to control. The IC50 is the concentration that gives 50% inhibition. With `C#Cc1c(F)ccc2cc(O)cc(-c3ncc4c(N5CC6CCC(C5)N6)nc(OCC56CCCN5CC(F)C6)nc4c3F)c12` (stereo not drawn), the viability, T/C was 57.4% and 52.2% and 68.6% (compound 0.0316 µM); 44.5% and 37.2% and 52.2% (compound 0.1 µM); 32.2% and 26% and 35.8% (compound 0.316 µM); 28.6% and 24.5% and 29.1% (compound 1 µM); 23.6% and 21.5% and 29.5% (compound 3.16 µM); 21.4% and 19.2% and 26.2% (compound 10 µM). For the same compound, the 50% inhibitory concentration (IC50) (curve of compound) was 0.0591 µM and 0.0375 µM and 0.117 µM.
As to `C=CC(=O)N1CCN(c2nc(=O)n(-c3c(C)ccnc3C(C)C)c3nc(-c4c(O)cccc4F)c(F)cc23)C(C)C1` (stereo not drawn), the viability, T/C (compound 0.0316 µM) was 109% (2×) and 106%; the viability, T/C (compound 0.1 µM) was 97% and 98.6% and 100%; the viability, T/C (compound 0.316 µM) was 105% and 112% and 106%; the viability, T/C (compound 1 µM) is 104% and 113% and 107%; the viability, T/C (compound 3.16 µM) is 108% and 104% and 114%; the viability, T/C (compound 10 µM) is 107% and 113% and 112%. In addition, the 50% inhibitory concentration (IC50) (curve of compound) was more than 10 µM.
`CC(C)n1c(=O)n(C)c2cnc3cc(F)c(-c4ccc(OCCCN5CCCCC5)nc4)cc3c21`: the viability, T/C was 106% and 110% and 109% (compound 0.0316 µM); 96.6% and 98.5% and 110% (compound 0.1 µM); 107% and 110% and 113% (compound 0.316 µM); 109% and 97.5% and 118% (compound 1 µM); 98% and 97.2% and 102% (compound 3.16 µM); 81.2% and 84% and 89.7% (compound 10 µM). The half-inhibitory concentration (IC50) (curve of compound) was more than 10 µM.
Take `CC1COCCN1c1cc(C2(O)CC3CCC(C2)O3)c2cnn(-c3ccn[nH]3)c2n1` (stereo not drawn): the viability, T/C by setting is: (compound 0.0316 µM) 100% and 99.2% and 87.4%; (compound 0.1 µM) 71.6% and 69.7% and 51.4%; (compound 0.316 µM) 29.2% and 34.4% and 21.1%; (compound 1 µM) 24.1% and 25.3% and 11.3%; (compound 3.16 µM) 23.8% and 24.9% and 15.1%; (compound 10 µM) 14.6% and 14.2% and 9.62%. In addition, the half-inhibitory concentration (IC50) (curve of compound) is 0.181 µM and 0.194 µM and 0.106 µM.
Consider `CCc1cc2c(N3CCc4c(cc(Cn5ccnc5)cc4-c4cn(C)nc4C(F)(F)F)C3=O)cc(C)nc2c(OC)n1`, for which the viability, T/C is 110% and 99.6% and 98.9% (compound 0.0316 µM); 92% and 79.7% and 87.1% (compound 0.1 µM); 88.2% and 81.7% and 79.3% (compound 0.316 µM); 89.3% and 74.5% and 69.2% (compound 1 µM); 87% and 76.7% and 72.6% (compound 3.16 µM); 71.6% and 58.8% and 56.6% (compound 10 µM). Besides, for the setting “curve of compound”, the half-inhibitory concentration (IC50) is more than 10 µM.
Consider `CCc1cc2c(N3CCc4c(cc(Cn5ccnc5)cc4-c4cn(C)nc4C(F)(F)F)C3=O)ccnc2c(OC)n1`, for which the viability, T/C is, setting by setting: (compound 0.0316 µM) 109% and 100% and 101%; (compound 0.1 µM) 95.6% and 93% and 84.3%; (compound 0.316 µM) 98.7% and 82.7% and 86.3%; (compound 1 µM) 87.5% and 83.7% and 77.2%; (compound 3.16 µM) 89.3% and 71.8% and 72.8%; (compound 10 µM) 68% and 70.2% and 53.9%. Further, the IC50 (curve of compound) is more than 10 µM.
For `COc1cc2cc(C(=O)CCC(=O)O)sc2cc1OC`, the viability, T/C by setting is: (compound 0.0316 µM) 101% and 105% (2×); (compound 0.1 µM) 101% (2×) and 99.3%; (compound 0.316 µM) 100% and 105% and 108%; (compound 1 µM) 96.9% and 103% and 106%; (compound 3.16 µM) 94.2% and 105% and 114%; (compound 10 µM) 96.2% and 95.3% and 93.4%. The IC50 (curve of compound) is more than 10 µM.
`O=C(Nc1ccc(O)c(NS(=O)(=O)c2ccc(F)cc2)c1)c1ccc(-c2ccccc2)cc1`: the viability, T/C was 103% and 108% and 98.8% (compound 0.0316 µM); 104% and 96.5% and 103% (compound 0.1 µM); 100% and 110% and 106% (compound 0.316 µM); 94% and 101% and 106% (compound 1 µM); 96.4% and 116% and 115% (compound 3.16 µM); 87.7% and 89.7% and 98% (compound 10 µM). Further, the IC50 (curve of compound) was more than 10 µM.
Consider `O=c1[nH]cc(F)c(=O)[nH]1` + COC1C(OC(N)=O)C(O)C(Oc2ccc3c(O)c(NC(=O)c4ccc(O)c(CC=C(C)C)c4)c(=O)oc3c2C)OC1(C)C, for which the IC50 runs as follows: (curve of first compound, second compound 0.0316 µM) 4.11 µM; (curve of first compound, second compound 0.1 µM) 4.8 µM; (curve of first compound, second compound 0.316 µM) 4.27 µM; (curve of first compound, second compound 1 µM) 4.01 µM; (curve of first compound, second compound 3.16 µM) 5.63 µM; (curve of first compound, second compound 10 µM) 3.27 µM. Besides, the viability, T/C reads like this: (second compound 0.0316 µM, first compound 0.0316 µM) 104%; (second compound 0.0316 µM, first compound 0.1 µM) 104%; (second compound 0.0316 µM, first compound 0.316 µM) 110%; (second compound 0.0316 µM, first compound 1 µM) 100%; (second compound 0.0316 µM, first compound 3.16 µM) 55.6%; (second compound 0.0316 µM, first compound 10 µM) 31.2%. Besides, the viability, T/C reads like this: (second compound 0.1 µM, first compound 0.0316 µM) 105%; (second compound 0.1 µM, first compound 0.1 µM) 108%; (second compound 0.1 µM, first compound 0.316 µM) 106%; (second compound 0.1 µM, first compound 1 µM) 98%; (second compound 0.1 µM, first compound 3.16 µM) 60.6%; (second compound 0.1 µM, first compound 10 µM) 31.4%. Further, the viability, T/C is 112% (second compound 0.316 µM, first compound 0.0316 µM); 108% (second compound 0.316 µM, first compound 0.1 µM); 108% (second compound 0.316 µM, first compound 0.316 µM); 96.9% (second compound 0.316 µM, first compound 1 µM); 55.2% (second compound 0.316 µM, first compound 3.16 µM); 34.9% (second compound 0.316 µM, first compound 10 µM). For the same compound, the viability, T/C reads like this: (second compound 1 µM, first compound 0.0316 µM) 112%; (second compound 1 µM, first compound 0.1 µM) 111%; (second compound 1 µM, first compound 0.316 µM) 110%; (second compound 1 µM, first compound 1 µM) 96.4%; (second compound 1 µM, first compound 3.16 µM) 53.9%; (second compound 1 µM, first compound 10 µM) 35.1%. Also, the viability, T/C is 112% (second compound 3.16 µM, first compound 0.0316 µM); 118% (second compound 3.16 µM, first compound 0.1 µM); 113% (second compound 3.16 µM, first compound 0.316 µM); 97.6% (second compound 3.16 µM, first compound 1 µM); 63.4% (second compound 3.16 µM, first compound 3.16 µM); 36.9% (second compound 3.16 µM, first compound 10 µM). In addition, the viability, T/C (second compound 10 µM, first compound 0.0316 µM) was 111%; the viability, T/C (second compound 10 µM, first compound 0.1 µM) was 108%; the viability, T/C (second compound 10 µM, first compound 0.316 µM) is 109%; the viability, T/C (second compound 10 µM, first compound 1 µM) is 100%; the viability, T/C (second compound 10 µM, first compound 3.16 µM) is 50.6%; the viability, T/C (second compound 10 µM, first compound 10 µM) was 31.3%.
